Results as given in ChEMBL document CHEMBL5214947, “Photoprotective effect of 18β-glycyrrhetinic acid derivatives against ultra violet (UV)-B-Induced skin aging” (Bioorg Med Chem Lett, 2022).
Activity calls are given as the source filed them. The calls are words filed in the database; no cut-off is given here.

Assays:
NHDF [1] = assay: Cytotoxicity against human HDF cells assessed as reduction in cell viability at 10 uM incubated for 24 hrs by MTT assay; type: toxicity, cell-based
NHDF [2] = assay: Cytoprotective activity against human HDF cells assessed as increase in cell viability at 10 uM incubated for 24 hrs by MTT assay; type: functional
NHDF [3] = assay: Cytoprotective activity against UV-B irradiation induced human HDF cells assessed as increase in cell viability at 10 uM incubated for 24 hrs by MTT assay; type: functional
NHDF [4] = assay: Cytoprotective activity against UV-B irradiation induced human HDF cells assessed as increase in cell viability at 25 uM incubated for 24 hrs by MTT assay; type: functional
NHDF [5] = assay: Antioxidant activity in UV-B irradiation induced human HDF cells assessed as decrease in ROS level at 25 uM incubated for 6 hrs by fluorescence microscopy; type: functional, cell-based
NHDF [6] = assay: Antiapoptotic activity in UV-B irradiation induced human HDF cells assessed as upregulation of catalase expression level at 50 uM incubated for 24 hrs by western blot analysis; type: functional, cell-based
NHDF [7] = assay: Antiapoptotic activity in UV-B irradiation induced human HDF cells assessed as upregulation of catalase expression level at 10 to 25 uM incubated for 24 hrs by western blot analysis; type: functional, cell-based; details: dose 10-25 µM
NHDF [8] = assay: Antiapoptotic activity in UV-B irradiation induced human HDF cells assessed as upregulation of procollagen-1 expression level at 10 to 25 uM incubated for 24 hrs by western blot analysis; type: functional, cell-based; details: dose 10-25 µM
NHDF [9] = assay: Antioxidant activity in UV-B irradiation induced human HDF cells assessed as decrease in ROS level at 10 to 25 uM incubated for 6 hrs by fluorescence microscopy; type: functional, cell-based; details: dose 10-25 µM, DDE = dose-dependent effect
NHDF [10] = assay: Antiapoptotic activity in UV-B irradiation induced human HDF cells assessed as decrease in mitochondrial membrane potential loss at 10 to 25 uM incubated for 24 hrs by JC-9 staining fluorescence microscopy; type: functional, cell-based; details: dose 10-25 µM, DDE = dose-dependent effect
NHDF [11] = assay: Antiapoptotic activity in UV-B irradiation induced human HDF cells assessed as downregulation of MMP1 expression level at 10 to 25 uM incubated for 24 hrs by western blot analysis; type: functional, cell-based; details: dose 10-25 µM

For `CC1(C)[C@@H](O)/C(=C/c2ccccc2)C[C@]2(C)[C@H]3C(=O)C=C4[C@@H]5C[C@@](C)(C(=O)O)CC[C@]5(C)CC[C@@]4(C)[C@]3(C)CC[C@@H]12`, the Activity (NHDF [1]) was 7.4%.
With `CC1(C)C(=O)/C(=C/c2cccc(F)c2)C[C@]2(C)[C@H]3C(=O)C=C4[C@@H]5C[C@@](C)(C(=O)O)CC[C@]5(C)CC[C@@]4(C)[C@]3(C)CC[C@@H]12` the Activity (NHDF [1]) was 6.5%.
In the case of `Cc1ccc(/C=C2\C[C@]3(C)[C@H]4C(=O)C=C5[C@@H]6C[C@@](C)(C(=O)O)CC[C@]6(C)CC[C@@]5(C)[C@]4(C)CC[C@H]3C(C)(C)C2=O)s1`, the Activity (NHDF [1]) is reported as 12.2%.
Compound `COc1ccc(/C=C2\C[C@]3(C)[C@H]4C(=O)C=C5[C@@H]6C[C@@](C)(C(=O)O)CC[C@]6(C)CC[C@@]5(C)[C@]4(C)CC[C@H]3C(C)(C)[C@H]2O)c(Br)c1O` has an Activity (NHDF [1]) of 20.2%.
For `COc1ccccc1/C=C1\C[C@]2(C)[C@H]3C(=O)C=C4[C@@H]5C[C@@](C)(C(=O)O)CC[C@]5(C)CC[C@@]4(C)[C@]3(C)CC[C@H]2C(C)(C)[C@H]1O`, the Activity (NHDF [2]) was 114.5% and the Activity (NHDF [3]) was 6%.
Work on `CC1(C)[C@@H](O)CC[C@]2(C)[C@H]3C(=O)C=C4[C@@H]5C[C@@](C)(C(=O)O)CC[C@]5(C)CC[C@@]4(C)[C@]3(C)CC[C@@H]12` [ENOXOLONE] yielded an Activity (NHDF [2]) of 106.4%, an Activity (NHDF [4]) of 17% and an Activity (NHDF [3]) of 1%.
In the case of `COc1ccc(/C=C2\C[C@]3(C)[C@H]4C(=O)C=C5[C@@H]6C[C@@](C)(C(=O)O)CC[C@]6(C)CC[C@@]5(C)[C@]4(C)CC[C@H]3C(C)(C)C2=O)c(Br)c1O`, the Activity (NHDF [1]) is reported as 10%.
`CC1(C)[C@@H](O)/C(=C/c2ccc(Br)cc2)C[C@]2(C)[C@H]3C(=O)C=C4[C@@H]5C[C@@](C)(C(=O)O)CC[C@]5(C)CC[C@@]4(C)[C@]3(C)CC[C@@H]12` gave an Activity (NHDF [2]) of 103.5%.
In the case of `CCc1ccc(/C=C2\C[C@]3(C)[C@H]4C(=O)C=C5[C@@H]6C[C@@](C)(C(=O)O)CC[C@]6(C)CC[C@@]5(C)[C@]4(C)CC[C@H]3C(C)(C)[C@H]2O)cc1`, the Activity (NHDF [2]) is reported as 114.5%.
In the case of `CC1(C)C(=O)/C(=C/c2ccncc2)C[C@]2(C)[C@H]3C(=O)C=C4[C@@H]5C[C@@](C)(C(=O)O)CC[C@]5(C)CC[C@@]4(C)[C@]3(C)CC[C@@H]12`, the Activity (NHDF [1]) is reported as 8.3%.
In the case of `O=C1O[C@H]([C@@H](O)CO)C(O)=C1O`, the Activity (NHDF [5]) is reported as “Active”.
`CC1(C)[C@@H](O)/C(=C/c2ccncc2)C[C@]2(C)[C@H]3C(=O)C=C4[C@@H]5C[C@@](C)(C(=O)O)CC[C@]5(C)CC[C@@]4(C)[C@]3(C)CC[C@@H]12` showed an Activity (NHDF [1]) of 3.2%.
In the case of `CC1(C)C(=O)/C(=C/c2cccc3ccccc23)C[C@]2(C)[C@H]3C(=O)C=C4[C@@H]5C[C@@](C)(C(=O)O)CC[C@]5(C)CC[C@@]4(C)[C@]3(C)CC[C@@H]12`, the Activity (NHDF [1]) is reported as 11.5%.
Work on `CC1(C)C(=O)CC[C@]2(C)[C@H]3C(=O)C=C4[C@@H]5C[C@@](C)(C(=O)O)CC[C@]5(C)CC[C@@]4(C)[C@]3(C)CC[C@@H]12` yielded an Activity (NHDF [1]) of 5.2%.
For `CSc1ccc(/C=C2\C[C@]3(C)[C@H]4C(=O)C=C5[C@@H]6C[C@@](C)(C(=O)O)CC[C@]6(C)CC[C@@]5(C)[C@]4(C)CC[C@H]3C(C)(C)C2=O)cc1`, the Activity (NHDF [1]) was 8.4%.
`Cc1ccc(/C=C2\C[C@]3(C)[C@H]4C(=O)C=C5[C@@H]6C[C@@](C)(C(=O)O)CC[C@]6(C)CC[C@@]5(C)[C@]4(C)CC[C@H]3C(C)(C)C2=O)cc1` was tested, and the Activity (NHDF [1]) was 30.5%.
Work on `COc1ccc(/C=C2\C[C@]3(C)[C@H]4C(=O)C=C5[C@@H]6C[C@@](C)(C(=O)O)CC[C@]6(C)CC[C@@]5(C)[C@]4(C)CC[C@H]3C(C)(C)C2=O)c(F)c1` yielded an Activity (NHDF [1]) of 19.1%.
In the case of `CC1(C)C(=O)/C(=C/c2ccc(Br)cc2)C[C@]2(C)[C@H]3C(=O)C=C4[C@@H]5C[C@@](C)(C(=O)O)CC[C@]5(C)CC[C@@]4(C)[C@]3(C)CC[C@@H]12`, the Activity (NHDF [1]) is reported as 17.5%.
Work on `Cc1ccc(/C=C2\C[C@]3(C)[C@H]4C(=O)C=C5[C@@H]6C[C@@](C)(C(=O)O)CC[C@]6(C)CC[C@@]5(C)[C@]4(C)CC[C@H]3C(C)(C)[C@H]2O)s1` yielded an Activity (NHDF [2]) of 101.1%.
With `COc1ccc(/C=C2\C[C@]3(C)[C@H]4C(=O)C=C5[C@@H]6C[C@@](C)(C(=O)O)CC[C@]6(C)CC[C@@]5(C)[C@]4(C)CC[C@H]3C(C)(C)C2=O)cc1` the Activity (NHDF [1]) was 11.5%.
Work on `CC1(C)C(=O)/C(=C/c2ccc(Cl)cc2)C[C@]2(C)[C@H]3C(=O)C=C4[C@@H]5C[C@@](C)(C(=O)O)CC[C@]5(C)CC[C@@]4(C)[C@]3(C)CC[C@@H]12` yielded an Activity (NHDF [2]) of 113.9%.
`CCOc1cccc(/C=C2\C[C@]3(C)[C@H]4C(=O)C=C5[C@@H]6C[C@@](C)(C(=O)O)CC[C@]6(C)CC[C@@]5(C)[C@]4(C)CC[C@H]3C(C)(C)[C@H]2O)c1` showed an Activity (NHDF [2]) of 100.1%.
In the case of `CC1(C)C(=O)/C(=C/c2ccccc2)C[C@]2(C)[C@H]3C(=O)C=C4[C@@H]5C[C@@](C)(C(=O)O)CC[C@]5(C)CC[C@@]4(C)[C@]3(C)CC[C@@H]12`, the Activity (NHDF [1]) is reported as 11.5%.
With `CC1(C)[C@@H](O)/C(=C/c2cccc3ccccc23)C[C@]2(C)[C@H]3C(=O)C=C4[C@@H]5C[C@@](C)(C(=O)O)CC[C@]5(C)CC[C@@]4(C)[C@]3(C)CC[C@@H]12` the Activity (NHDF [2]) was 110.1%.
In the case of `COc1ccc(/C=C2\C[C@]3(C)[C@H]4C(=O)C=C5[C@@H]6C[C@@](C)(C(=O)O)CC[C@]6(C)CC[C@@]5(C)[C@]4(C)CC[C@H]3C(C)(C)[C@H]2O)cc1`, the Activity (NHDF [2]) is reported as 112.5%.
Compound `CC1(C)[C@@H](O)/C(=C/c2cccc(F)c2)C[C@]2(C)[C@H]3C(=O)C=C4[C@@H]5C[C@@](C)(C(=O)O)CC[C@]5(C)CC[C@@]4(C)[C@]3(C)CC[C@@H]12` has an Activity (NHDF [1]) of 4.4%.
`COc1ccccc1/C=C1\C[C@]2(C)[C@H]3C(=O)C=C4[C@@H]5C[C@@](C)(C(=O)O)CC[C@]5(C)CC[C@@]4(C)[C@]3(C)CC[C@H]2C(C)(C)C1=O` showed an Activity (NHDF [1]) of 5.9%.
For `CCOc1cccc(/C=C2\C[C@]3(C)[C@H]4C(=O)C=C5[C@@H]6C[C@@](C)(C(=O)O)CC[C@]6(C)CC[C@@]5(C)[C@]4(C)CC[C@H]3C(C)(C)C2=O)c1`, the Activity (NHDF [1]) was 35.7%.
With `COc1cc(Br)c(/C=C2\C[C@]3(C)[C@H]4C(=O)C=C5[C@@H]6C[C@@](C)(C(=O)O)CC[C@]6(C)CC[C@@]5(C)[C@]4(C)CC[C@H]3C(C)(C)[C@H]2O)cc1O` the Activity (NHDF [1]) was 10.3%.
`CSc1ccc(/C=C2\C[C@]3(C)[C@H]4C(=O)C=C5[C@@H]6C[C@@](C)(C(=O)O)CC[C@]6(C)CC[C@@]5(C)[C@]4(C)CC[C@H]3C(C)(C)[C@H]2O)cc1` was tested, and the Activity (NHDF [2]) was 109.5% and the Activity (NHDF [4]) was 12%.
For `CC1(C)[C@@H](O[C@H]2O[C@H](C(=O)O)[C@@H](O)[C@H](O)[C@H]2O[C@@H]2O[C@H](C(=O)O)[C@@H](O)[C@H](O)[C@H]2O)CC[C@]2(C)[C@H]3C(=O)C=C4[C@@H]5C[C@@](C)(C(=O)O)CC[C@]5(C)CC[C@@]4(C)[C@]3(C)CC[C@@H]12`, the Activity (NHDF [6]) was “Active”.
`CCc1ccc(/C=C2\C[C@]3(C)[C@H]4C(=O)C=C5[C@@H]6C[C@@](C)(C(=O)O)CC[C@]6(C)CC[C@@]5(C)[C@]4(C)CC[C@H]3C(C)(C)C2=O)cc1` showed an Activity (NHDF [1]) of 28.8%.
`COc1cc(Br)c(/C=C2\C[C@]3(C)[C@H]4C(=O)C=C5[C@@H]6C[C@@](C)(C(=O)O)CC[C@]6(C)CC[C@@]5(C)[C@]4(C)CC[C@H]3C(C)(C)C2=O)cc1O` showed an Activity (NHDF [2]) of 104.7% and an Activity (NHDF [3]) of 3%.
For `COc1ccc(/C=C2\C[C@]3(C)[C@H]4C(=O)C=C5[C@@H]6C[C@@](C)(C(=O)O)CC[C@]6(C)CC[C@@]5(C)[C@]4(C)CC[C@H]3C(C)(C)[C@H]2O)c(F)c1`, the Activity (NHDF [7]) was “Active”, the Activity (NHDF [8]) was “Active” and the Activity (NHDF [2]) was 106.7%. The Activity (NHDF [4]) was 19.5%, the Activity (NHDF [3]) was 8.3% and the Activity (NHDF [9]) was “Dde”. The Activity (NHDF [10]) was “Dde” and the Activity (NHDF [11]) was “Active”.
